Assay results published in patent US20140271485A1, “USE OF COELENTERAZINE FOR IMAGING INSULIN-GENERATING BETA-CELLS” (The Board of Trustees of the Leland Stanford Junior …, priority 2013, published 2014).
“Also recorded” adds a separate entry of the source.

How the values were obtained:
[1] = tested on: β-cell mass (pancreatic signal); test: Streptozotocin-induced diabetic mouse model, coelenterazine imaging of pancreas; format: in vivo, mice
Protocol: FIGS. 4A-4D illustrate the results from a streptozotocin-induced diabetic mouse model. Mice were treated with 200 mg/kg of streptozotocin (STZ) or PBS on day 0.
Top Panel: 3-days post-treatment, mice were administered 2 g/kg glucose and maintained on 10% sucrose water. Four h later, mice were intravenously injected with 1.4 mg/kg of coelenterazine and imaged. Bottom panel: Bioluminescence imaging of the excised pancreases collected from the mice depicted in top panel.
To conclusively determine the β-cell specificity of the signal, coelenterazine was used to image the pancreas of mice that received the β-cell toxic agent streptozotocin (STZ) versus a Phosphate-Buffered Saline (PBS) control in which the β-cells were functional.

[2] = tested on: rat insulinoma cell lines (RIN5F β-cell line); test: In vitro bioluminescence imaging of cell lines with coelenterazine (cell plate assay); format: cell-based
Protocol: FIG. 1A is a digital image illustrating a cell plate assay. 10^5 cells of each cell line were washed two times in serum-free RPMI and plated in a 96-well black plate. Coelenterazine was added to a final concentration of 10 μM and the plate imaged. RIN5F is a β-cell line and the remainder are control cell lines.
FIG. 1B is a graph illustrating the quantification of the bioluminescence signals of FIG. 1A. Error bars represent the standard error.
In vitro experiments for the imaging cell lines may be completed on the day of cell collection or following incubation. If imaging is performed following prolonged incubation combined with comparisons between dissimilar cell lines, it is important to consider the likelihood of there being a different division rate for each cell line.
For same-day imaging, the cells are collected by a method dictated by the particular cell line. Cells are washed twice in imaging buffer by repeated resuspension and centrifugation (a variety of buffers have proven effective, including: PBS, DPBS and Krebs). […] The desired concentration of cells is added to an imaging plate.
Coelenterazine is resuspended to a concentration of about 1-10 mg/mL in 100% ethanol and then diluted in imaging buffer to achieve the desired imaging concentration. […]
The coelenterazine is added to wells to be imaged and the signal detected using a bioluminescence detection system such as an IVIS. […]

pancreas = test: Ex vivo bioluminescence imaging of excised tissues with coelenterazine; parameters: species or system mice; details: ex vivo imaging of excised mouse tissues; significance P<0.05
Protocol: FIG. 2A is a digital image illustrating bioluminescence images of excised tissues from 3 mice in 1 mL PBS with 20 μg coelenterazine and imaged immediately.
Error bars represent the standard error and significance is defined as P<0.05.

[3] = tested on: β-cell mass (pancreatic signal); test: In vivo bioluminescence imaging of beta cell mass after intravenous coelenterazine; parameters: species or system mice
Protocol: FIG. 3A is a digital image, for the in vivo characterization of a coelenterazine (CTZ) pancreatic signal, showing the bioluminescence imaging of mice that were fasted for 6 h or received 2 g/kg intraperitoneal glucose and maintained on 10% sucrose water for 4 h. Mice then received 40 μg CTZ intravenously and were imaged immediately. FIG. 3C is a digital image, for the in vivo characterization of a coelenterazine (CTZ) pancreatic signal, showing the bioluminescence imaging of mice treated with glucose followed by administration of 0.56, 1.4, or 3.5 mg/kg CTZ intravenously. FIG. 3D is a graph illustrating the quantification of the signal detected in FIG. 3C at 1 min intervals following CTZ injection. […] A standardized anesthetic protocol with a defined anesthetic dose and induction period (if using inhalant anesthetics) is also required. Coelenterazine is prepared at a concentration of 10 mg/mL in 100% ethanol. The coelenterazine may be further diluted in a pharmaceutically acceptable carrier selected as suitable for injection into an animal subject for imaging. […] It is important to protect the imaging solution from light and that is prepared immediately prior to use. Following anesthetic induction, the imaging solution is intravenously administered at a dose of about 1-10 mg/kg and imaging is begun immediately in using an in vivo bioluminescence imaging system.

| Compound | blood glucose values, STZ versus PBS ([1]; 200 mg/kg STZ on day 0, measured on day 3) | coelenterazine-dependent bioluminescence signal of rat insulinoma cell lines relative to other cell lines ([2]; in the absence of any additional reagents) | time to stable maximum of signal following coelenterazine addition ([2]; in vitro, cells in imaging buffer) | bioluminescence signal of pancreas compared to other tissues (pancreas) | time of maximum pancreatic signal intensity post-injection ([3]; intravenous, about 1-10 mg/kg) | signal of insulin-secreting β-cells compared to cells quiescent due to fasting ([3]; mice, glucose-treated vs fasted) | dose dependence of detectable signal intensity ([3]; mice, intravenous) | location of bioluminescence signal upon intravenous injection ([3]; mice, intravenous) | pancreatic signal in STZ-treated mice versus PBS control ([1]; STZ 200 mg/kg day 0, imaging 3 days post-treatment, in vivo and ex vivo pancreas) | correlation between pancreatic signal and blood glucose ([1]; STZ and PBS mice) |
| --- | --- | --- | --- | --- | --- | --- | --- | --- | --- | --- |
| CN(N=O)C(=O)N[C@H]1C(O)O[C@H](CO)[C@@H](O)[C@@H]1O (mixture of isomers) [streptozotocin] | difference (P=0.0265) |  |  |  |  |  |  |  |  |  |
| O=c1c(Cc2ccc(O)cc2)nc2c(Cc3ccccc3)[nH]c(-c3ccc(O)cc3)cn1-2 [coelenterazine, 6-(4-hydroxyphenyl)-2-[(4-hydroxyphenyl)methyl]-8-(phenylmethyl)-7H-imidazo[3,2-a]pyrazin-3-one] |  | greater coelenterazine-dependent bioluminescence signal relative to other cell lines | 15 to 45 min | Significantly greater signals were detected from the pancreas compared to all other tissues; also recorded: significantly elevated pancreatic signal compared to other examined non-insulin-producing tissues | 2 to 5 min | insulin-secreting β-cells produced a greater signal | dose-dependent | pancreatic-specific bioluminescent signal; also recorded: a mid-upper abdominal bioluminescence signal was detected | significant difference (P=0.0000); also recorded: reduced in type I diabetic mice; also recorded: significant reduction in pancreatic signal in STZ-treated mice | correlation was significant (P=0.0317); also recorded: significant and inverse correlation |
